These are literature values, as cited in patent US20140363510A1, “PHARMACEUTICAL COMPOSITION INCLUDING PIMOBENDAN” (BOEHRINGER INGELHEIM VETMEDICA GMBH, priority 2004, published 2014).

Molecules are shown by their SMILES.

With `COc1ccc(-c2nc3ccc(C4=NNC(=O)CC4C)cc3[nH]2)cc1` (centres unmarked) [Pimobendan, 4,5-dihydro-6-[2-(4-methoxyphenyl)-1H-benzimidazol-5-yl]-5-methyl-3(2H)-pyridazone], under “aqueous media, pH-dependent”, the “solubility in aqueous media” value was “low solubility in aqueous media and a very highly pH-dependent solubility”. Moreover, the solubility in water entry (water) is on record as “hardly dissolves in water”.
